Usually pIC50 stands for the negative decadic logarithm of the IC50, by convention in mol/L.

pIC50: −log10 of the molar value. Like-named read-outs stand apart in the source and are kept apart here. Ends that are not written are not given here. A value given as a limit tells only on which side of the number the result lay.

One data set concerns A498. The data set is described as follows: cells. In kind it is cell-based. Conditions: Homo sapiens, Kidney, DMEM + 10% FCS, 72 hours. Here is the method: (§1) The CellTiter-Glo luminescent cell viability assay examining the impact of peptides on 22 different human cell lines was purchased from Reaction Biology Europe GmbH (Germany). Cells were cultured in different media (Table S1), seeded into a flat-bottom 96-well plate, and incubated at 37 °C. After overnight incubation, test compounds were added with 1% PBS/0.3% Tween 20 and the reference compound bortezomib was added with 0.1% DMSO. Negative controls were solvents alone, and positive control was 10 μM staurosporine. After 72 h of incubation at 37 °C, 5 or 10% CO2 (dependent on the medium), and 1 h equilibration at room temperature, well plates were treated with CellTiter-Glo reagent (Promega) for an hour and luminescence was measured using a luminometer.
(§2) Table S1. In vitro activity against 22 different human cancer cell lines.
(§3) Sr. Cancer Activity (in M)
(§4) no. Cell line type Culture medium
(§5) The effect of investigated compounds on the proliferation of 22 different human cell lines is
(§6) Twenty of these 22 cell lines represent specific cancer types and 2 were non-cancerous. Peptide
(§7) Anticancer drug bortezomib was used as the […]

A further data set relates to A549. The data set is described as follows: cells. In kind it is cell-based. Conditions: Homo sapiens, Lung, DMEM + 10% FCS, 72 hours. Here is the method: as §1, §2, §3, §4, §5, §6, §7
In the next data set the test system is Caki-1. The data set is described as follows: cells. Conditions: Homo sapiens, Kidney, DMEM + 10% FCS, 72 hours. It is filed as cell-based. Here is the method:
as §1, §2, §3, §4, §5, §6, §7

In a further data set the test system is DU-145. In words: cells. Conditions: Homo sapiens, Prostate, DMEM + 10% FCS, 72 hours. In kind it is cell-based. Here is the method:
as §1, §2, §3, §4, §5, §6, §7

A further data set relates to H460. The data set is described as follows: cells. Conditions: Homo sapiens, NCI-H460; Lung; DMEM + 10% FCS; 72 hours. In kind it is cell-based. Here is the method:
as §1, §2, §3, §4, §5, §6, §7

The next data set relates to HCT116. The data set is described as follows: cells. In kind it is cell-based. Conditions: Homo sapiens, HCT-116; Colorectal; DMEM + 10% FCS; 72 hours. Here is the method: as §1, §2, §3, §4, §5, §6, §7
For the next data set, the system named is HL-60. The data set is described as follows: cells. It is filed as cell-based. Conditions: Homo sapiens, Leukemia, RPMI-1640 + 10% FCS, 72 hours. On the procedure: as §1, §2, §3, §4, §5, §6, §7
For another data set, the system named is K562. The data set is described as follows: cells. It is filed as cell-based. Conditions: Homo sapiens, Leukemia, RPMI-1640 + 10% FCS, 72 hours. Here is the method: as §1, §2, §3, §4, §5, §6, §7
A further data set relates to MCF-7. In words: cells. It is filed as cell-based. Conditions: Homo sapiens, MCF7; Breast; DMEM + 10% FCS; 72 hours. Here is the method: as §1, §2, §3, §4, §5, §6, §7
The subject of a further data set is MDA MB 231. The data set is described as follows: cells. Conditions: Homo sapiens, Breast, DMEM + 10% FCS, 72 hours. In kind it is cell-based. Here is the method:
as §1, §2, §3, §4, §5, §6, §7

The test system of another data set is MOLT-4. The data set is described as follows: cells. In kind it is cell-based. Conditions: Homo sapiens, Leukemia, DMEM + 10% FCS, 72 hours. On the procedure:
as §1, §2, §3, §4, §5, §6, §7

For a further data set, the system named is MSC_UC. In words: cells. Conditions: Homo sapiens; Non-cancerous; Promocell MSC-Medium C-28010 + Sup. C39810; 72 hours. It is filed as cell-based. On the procedure: as §1, §2, §3, §4, §5, §6, §7
Another data set concerns NHDF. In words: cells. It is filed as cell-based. Conditions: Homo sapiens; Non-cancerous; Promocell NHDF-Medium C-23010 + Sup. C39315; 72 hours. On the procedure: as §1, §2, §3, §4, §5, §6, §7
For another data set, the system named is PC3. In words: cells. It is filed as cell-based. Conditions: Homo sapiens, PC-3; Prostate; DMEM + 10% FCS; 72 hours. On the procedure: as §1, §2, §3, §4, §5, §6, §7
The test system of another data set is SK-OV3. In words: cells. Conditions: Homo sapiens, SK-OV-3; Ovarian; DMEM + 10% FCS; 72 hours. In kind it is cell-based. On the procedure: as §1, §2, §3, §4, §5, §6, §7
The subject of another data set is SW620. In words: cells. It is filed as cell-based. Conditions: Homo sapiens, SW-620; Colorectal; DMEM + 10% FCS; 72 hours. On the procedure: as §1, §2, §3, §4, §5, §6, §7
The subject of another data set is T-47D. In words: cells. In kind it is cell-based. Conditions: Homo sapiens, T47D; Breast; RPMI-1640 +10% FCS + 0,2U/mL Insulin; 72 hours. On the procedure:
as §1, §2, §3, §4, §5, §6, §7

Another data set deals with U251MG. The data set is described as follows: cells. It is filed as cell-based. Conditions: Homo sapiens, U-251; Brain; DMEM + 10% FCS; 72 hours. On the procedure:
as §1, §2, §3, §4, §5, §6, §7

A further data set relates to HCT-15. In words: cells. Conditions: Homo sapiens, HCT-15; Colorectal; RPMI-1640 +10% FCS; 72 hours; read-out: Activity (in M), IC50. In kind it is cell-based, human. Here is the method: as §1, §2, §3, §4, §5, §6, §7
The subject of the next data set is MDA MB 435. In words: cells. Conditions: Homo sapiens, MDA-MB-435; Melanoma; RPMI-1640 +10% FCS; 72 hours; read-out: Activity (in M), IC50. It is filed as cell-based, human. Here is the method: as §1, §2, §3, §4, §5, §6, §7
The next data set deals with OVCAR-3. The data set is described as follows: cells. It is filed as cell-based, human. Conditions: Homo sapiens, OVCAR-3; Ovarian; RPMI-1640 +10% FCS; 72 hours; read-out: Activity (in M), IC50. Here is the method: as §1, §2, §3, §4, §5, §6, §7
The next data set deals with RPMI 8226. In words: cells. In kind it is cell-based, human. Conditions: Homo sapiens, RPMI-8226; Myeloma; RPMI-1640 +10% FCS; 72 hours; read-out: Activity (in M), IC50. Here is the method: as §1, §2, §3, §4, §5, §6, §7
How the values of data set [1] were obtained: (§8) Cytotoxicity against human immortalized keratinocytes HaCaT, human alveolar basal epithelial A549 (derived from adenocarcinoma), and murine macrophages RAW 264.7 was tested using MTT [3-(4,5-dimethylthiazol-2-yl)-2,5-diphenyltetrazolium bromide] assay. Cells were cultured in Dulbecco’s modified Eagle’s medium (DMEM) containing 4 mM glutamine for HaCaT, or 2 mM glutamine for A549 and RAW 264.7 cells, supplemented with 10% heat-inactivated fetal bovine serum (FBS) and antibiotics (0.1 mg/mL penicillin and streptomycin). Nonessential amino acids (NEAA) and sodium pyruvate (1 mM) were added for macrophages. Cell lines were grown in 25 and 75 cm^2 flasks at 37 °C in a humidified atmosphere with 5% CO2. Cells were suspended in DMEM, containing glutamine, NEAA, and sodium pyruvate (as described above), supplemented with 2% FBS, plated in 96-well plates at 4 × 10^4 cells/well, and incubated at 37 °C in a 5% CO2 atmosphere. After overnight incubation, the medium was replaced with fresh DMEM supplemented with peptides at different concentrations: 2, 4, 8, 16, 32, 64, and 128 μM. Negative controls were cells without peptides. After 24 h of peptide treatment at 37 °C in a 5% CO2 atmosphere, medium was replaced with Hank’s buffer (136 mM NaCl, 0.34 mM Na2HPO4, 0.44 mM KH2PO4, 5.4 mM KCl, 4.1 mM NaHCO3, supplemented with 5.5 mM D-glucose) containing 0.5 mg/mL MTT. Mitochondrial dehydrogenases converted soluble yellow dye MTT to insoluble purple formazan. After 4 h of incubation, acidified isopropanol was added to dissolve formazan crystals and measured for OD570 using Tecan microplate reader Infinite M200 (Salzburg, Austria).

The procedure of data set [2]: as §8, with “After 24 h of peptide treatment at 37 °C in a 5% CO2 atmosphere, medium was replaced with Hank’s buffer (136 mM NaCl, 0.34 mM Na2HPO4, 0.44 mM KH2PO4, 5.4 mM KCl, 4.1 mM NaHCO3, supplemented with 5.5 mM D-glucose) containing 0.5 mg/mL MTT. Mitochondrial dehydrogenases converted soluble yellow dye MTT to insoluble purple formazan.” left out
The source holds these as a separate data set.

The procedure of data set [3]:
as §8
This is another data set of the same source.

Data set [4] has as its system normal B and T lymphocytes, granulocytes, and monocytes in whole blood. In words: Viability by flow cytometric staining in whole blood. In kind it is cell-based, human. Conditions: up to the highest tested concentration of 50 μM; 16 h. On the procedure:
Finally, we tested the effect of LP1 and LP40 on healthy primary cells in whole blood from a healthy donor (Figure S11).
The whole blood was seeded in a 96-well plate at 200 μL/well and treated with peptides for 16 h. The samples were then stained with anti-CD3 (FITC, Sony), anti-CD14 (APC-Cy7, Sony), and anti-CD19 (PE, Beckman Coulter) antibodies and incubated for 20 min at room temperature in the dark. The cells were then incubated with red blood cell lysis buffer for 10 min at room temperature, centrifuged, resuspended in PBS containing SYTOX Blue Dead Cell Stain (Thermo Fisher Scientific) and measured using a FACSVerse flow cytometer (BD Biosciences).
(In general: In flow cytometry, cells or beads pass a laser one at a time.)

The conditions of data set [5]: single intraperitoneal dose at 10 times the MIC.
Experimental: Neutropenic mice were infected intramuscularly (in the right thigh) with 10^6 cells per mL of Gram-negative A. baumannii (ATCC 19606).
(a) Schematic of the deep thigh infection model in which bacteria are injected intramuscularly at day 4 and peptides are administered intraperitoneally also at day 4 to assess their anti-infective activity. Mice were euthanized 4 days postinfection (day 8). Each group consisted of six mice (n = 6), and the bacterial loads used to infect the mice derived from three different inocula. […] Polymyxin B (0.006 mg/kg) and levofloxacin (0.014 mg/kg) were used as the reference antibiotics. Statistical significance was done using one-way ANOVA followed by Dunnett’s test. Violin plots represent the median, upper quartile, and lower quartile. (c) Mouse weight was monitored to exclude possible toxic effects of the peptides.
Six-week-old female CD-1 mice (obtained from Charles River; stock number 18679700-022) underwent neutropenia induction via two intraperitoneal doses of cyclophosphamide (150 mg kg^–^1) administered with a 72 h interval. One day later, the mice received an intramuscular injection containing A. baumannii ATCC 19606 (10^6 CFU mL^–1) in the right thigh. Bacteria were cultured in LB broth, washed twice with PBS (pH 7.4), and resuspended to the desired concentration. […] Polymyxin B (0.006 mg/kg) and levofloxacin (0.014 mg/kg) were used as the reference antibiotics. Prior to each injection, mice were anesthetized with isoflurane and their respiratory rate and pedal reflexes were monitored. Subsequently, we observed the infection establishment and euthanized the mice. The infected area was excised 4 days postinfection (i.e., 8 days after the beginning of the experiment), homogenized using a bead beater for 20 min (25 Hz), and 10-fold serially diluted for CFU quantification on MacConkey agar plates. Each experimental group comprised three mice. All experiments were conducted blindly, and no animals were excluded from the analysis. Statistical significance was assessed using one-way ANOVA followed by Dunnett’s test on log10-transformed data to mitigate outlier effects; p values are reported for each group, with all groups compared to the untreated control group.

For the molecule `CC(C)C[C@H](NC(=O)[C@H](Cc1ccccc1)NC(=O)c1cnccn1)B(O)O` [Bortezomib], the pIC50 was 8.04 with A498; 7.60 in the data set on A549; 7.92 with Caki-1; 7.80 in the data set on DU-145; 7.59 in the data set on H460; 8.16 in the data set with HCT116. In addition, the pIC50 with HL-60 was 8.39; in the data set with K562, 8.04; in the data set with MCF-7 it was 7.68; with MDA MB 231 it was 7.92; in the data set with MOLT-4 it was 8.40; in the data set with MSC_UC, 8.33. In addition, the pIC50 in the data set with NHDF was 7.85; with PC3, 7.80; in the data set with SK-OV3, 7.72; with SW620 it was 8.00; in the data set on T-47D, 8.07; in the data set with U251MG, 7.72. Besides, the pIC50 in the data set with HCT-15 is 8.01; with MDA MB 435 it was 8.37; with OVCAR-3, 8.40; with RPMI 8226, 8.49.

Take HHHHLKKILKKLFQFINQLDNQLQDIHHHH [LP40]: the pIC50 in [1], in data set [2] and in data set [3] was under 4.15 throughout. Also, the “Effect on healthy primary cells in whole blood” value in data set [4] is “no apparent deleterious effect”. In data set [5], the “Change in mouse weight” value is “no significant change in mouse weight”.

Values taken from article PMC11345766, “Computational Design of Pore-Forming Peptides with Potent Antimicrobial and Anticancer Activities” (Journal of Medicinal Chemistry, 2024).
